In PubChem BioAssay (NCI):
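How tested: cells in 96-well plates exposed to compound for 48 hours at five concentrations. At the GI50, growth is halved. At the TGI there is no net growth.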

What was measured:
Assay in all cases: growth of human tumour cells (NCI), 48 h
[1] = tested on: 786-0 renal
[2] = tested on: A498 renal
[3] = tested on: A549 NSCLC
[4] = tested on: ACHN renal
[5] = tested on: BT-549 breast
[6] = tested on: CAKI-1 renal
[7] = tested on: CCRF-CEM leukemia
[8] = tested on: COLO 205 colon
[9] = tested on: DU-145 prostate
[10] = tested on: EKVX NSCLC
[11] = tested on: HCC-2998 colon
[12] = tested on: HCT-116 colon
[13] = tested on: HCT-15 colon
[14] = tested on: HL-60(TB) leukemia
[15] = tested on: HOP-62 NSCLC
[16] = tested on: HOP-92 NSCLC
[17] = tested on: HS 578T breast
[18] = tested on: HT29 colon
[19] = tested on: IGROV1 ovarian
[20] = tested on: K-562 leukemia
[21] = tested on: KM12 colon
[22] = tested on: LOX IMVI melanoma
[23] = tested on: M14 melanoma
[24] = tested on: MALME-3M melanoma
[25] = tested on: MCF7 breast
[26] = tested on: MDA-MB-231 breast
[27] = tested on: MDA-MB-435
[28] = tested on: MOLT-4 leukemia
[29] = tested on: NCI-H226 lung
[30] = tested on: NCI-H460 lung
[31] = tested on: NCI-H522 lung
[32] = tested on: NCI/ADR-RES ovarian
[33] = tested on: OVCAR-3 ovarian
[34] = tested on: OVCAR-4 ovarian
[35] = tested on: OVCAR-5 ovarian
[36] = tested on: OVCAR-8 ovarian
[37] = tested on: PC-3 prostate
[38] = tested on: RPMI-8226 leukemia
[39] = tested on: RXF 393 renal
[40] = tested on: SF-268 CNS
[41] = tested on: SF-295 CNS
[42] = tested on: SF-539 CNS
[43] = tested on: SK-MEL-2 melanoma
[44] = tested on: SK-MEL-28 melanoma
[45] = tested on: SK-MEL-5 melanoma
[46] = tested on: SK-OV-3 ovarian
[47] = tested on: SN12C renal
[48] = tested on: SNB-19 CNS
[49] = tested on: SNB-75 CNS
[50] = tested on: SR leukemia
[51] = tested on: SW-620 colon
[52] = tested on: T-47D breast
[53] = tested on: TK-10 renal
[54] = tested on: U251 CNS
[55] = tested on: UACC-257 melanoma
[56] = tested on: UACC-62 melanoma
[57] = tested on: UO-31 renal

CCOc1ccc(-c2nnc(C3CC(NC(=O)c4cccc5nccnc45)C3)n2-c2ccccc2F)nc1 (centres undefined)
GI50 [1]: 17.6 µM | TGI [1]: > 100 µM | GI50 [2]: 8.31 µM | TGI [2]: 58.6 µM | GI50 [3]: 24.2 µM | TGI [3]: > 100 µM | GI50 [4]: 15.1 µM | TGI [4]: 29.8 µM | GI50 [5]: 10.9 µM | TGI [5]: 23.7 µM | GI50 [6]: 14.3 µM | TGI [6]: > 100 µM | GI50 [7]: 21.3 µM | TGI [7]: 59.7 µM | GI50 [8]: 19.1 µM | TGI [8]: 50.9 µM | GI50 [9]: 25.9 µM | TGI [9]: > 100 µM | GI50 [10]: 27 µM | TGI [10]: > 100 µM | GI50 [11]: 18.3 µM | TGI [11]: 35.3 µM | GI50 [12]: 16 µM | TGI [12]: 36.2 µM | GI50 [13]: 23.2 µM | TGI [13]: 89 µM | GI50 [14]: 20.9 µM | TGI [14]: 48.3 µM | GI50 [15]: 12.7 µM | TGI [15]: 36.9 µM | GI50 [16]: 4.02 µM | TGI [16]: 40 µM | GI50 [17]: 16.3 µM | TGI [17]: 94.8 µM | GI50 [18]: 15.1 µM | TGI [18]: 32.4 µM | GI50 [19]: 17 µM | TGI [19]: > 100 µM | GI50 [20]: 24.1 µM | TGI [20]: > 100 µM | GI50 [21]: 23.6 µM | TGI [21]: 60.1 µM | GI50 [22]: 17.5 µM | TGI [22]: 36.7 µM | GI50 [23]: 16.2 µM | TGI [23]: 32.9 µM | GI50 [24]: 17.4 µM | TGI [24]: 47.2 µM | GI50 [25]: 21.4 µM | TGI [25]: 90.7 µM | GI50 [26]: 17.7 µM | TGI [26]: 51.8 µM | GI50 [27]: 21.2 µM | TGI [27]: 51.5 µM | GI50 [28]: 14.8 µM | TGI [28]: 39.9 µM | GI50 [29]: 13.1 µM | TGI [29]: 41.5 µM | GI50 [30]: 26.9 µM | TGI [30]: > 100 µM | GI50 [31]: 14.9 µM | TGI [31]: 34.2 µM | GI50 [32]: 19.2 µM | TGI [32]: 92.9 µM | GI50 [33]: 13.3 µM | TGI [33]: 36.1 µM | GI50 [34]: 12.2 µM | TGI [34]: > 100 µM | GI50 [35]: 18.2 µM | TGI [35]: 52.8 µM | GI50 [36]: 22.8 µM | TGI [36]: > 100 µM | GI50 [37]: 21.1 µM | TGI [37]: 86.9 µM | GI50 [38]: 12.9 µM | TGI [38]: 35.3 µM | GI50 [39]: 6.82 µM | TGI [39]: 21.5 µM | GI50 [40]: 20.4 µM | TGI [40]: > 100 µM | GI50 [41]: 18.7 µM | TGI [41]: 39.7 µM | GI50 [42]: 14.6 µM | TGI [42]: 29.2 µM | GI50 [43]: 14.8 µM | TGI [43]: 36.4 µM | GI50 [44]: 19.3 µM | TGI [44]: 48.1 µM | GI50 [45]: 14.2 µM | TGI [45]: 27.4 µM | GI50 [46]: 13.6 µM | TGI [46]: 38.2 µM | GI50 [47]: 14.7 µM | TGI [47]: 50.5 µM | GI50 [48]: 24.5 µM | TGI [48]: > 100 µM | GI50 [49]: 13.2 µM | TGI [49]: 46.4 µM | GI50 [50]: 16.5 µM | TGI [50]: 52.9 µM | GI50 [51]: 31.9 µM | TGI [51]: > 100 µM | GI50 [52]: 7.24 µM | TGI [52]: 39.6 µM | TGI [53]: 31.1 µM | GI50 [54]: 10.7 µM | TGI [54]: 29.8 µM | GI50 [55]: 19.6 µM | TGI [55]: 51 µM | GI50 [56]: 17.5 µM | TGI [56]: 38.4 µM | TGI [57]: > 100 µM

C/C(=N\NC(=S)Nc1ccc(Br)cc1)c1cc2ccccc2oc1=O
GI50 [1]: 2.46 µM | TGI [1]: 13.5 µM | GI50 [2]: 14.4 µM | TGI [2]: 31.4 µM | GI50 [3]: 2.39 µM | TGI [3]: 13.4 µM | GI50 [4]: 0.76 µM | TGI [4]: 17.1 µM | GI50 [5]: 1.26 µM | TGI [5]: 6.36 µM | GI50 [6]: 0.561 µM | TGI [6]: 9.94 µM | GI50 [7]: 0.464 µM | TGI [7]: 9.51 µM | GI50 [8]: 3.34 µM | TGI [8]: 12.1 µM | GI50 [9]: 1.79 µM | TGI [9]: 25.8 µM | GI50 [10]: 2.85 µM | TGI [10]: 30.8 µM | GI50 [11]: 1.69 µM | TGI [11]: 5.52 µM | GI50 [12]: 0.579 µM | TGI [12]: 12.5 µM | GI50 [13]: 0.404 µM | TGI [13]: 13.5 µM | GI50 [14]: 0.44 µM | TGI [14]: 3.08 µM | GI50 [15]: 0.841 µM | TGI [15]: 12.6 µM | GI50 [16]: 1.21 µM | TGI [16]: 18 µM | GI50 [18]: 3.72 µM | TGI [18]: 14.4 µM | GI50 [19]: 0.84 µM | TGI [19]: 15.3 µM | GI50 [20]: 0.42 µM | TGI [20]: 21.1 µM | GI50 [21]: 0.6 µM | TGI [21]: 8.23 µM | GI50 [22]: 0.53 µM | TGI [22]: 5.34 µM | GI50 [23]: 0.604 µM | TGI [23]: 2.22 µM | GI50 [24]: 1.12 µM | TGI [24]: 7 µM | GI50 [25]: 0.87 µM | TGI [25]: 10.9 µM | GI50 [26]: 0.956 µM | TGI [26]: 25.2 µM | GI50 [27]: 0.353 µM | TGI [27]: 11.9 µM | GI50 [28]: 0.46 µM | TGI [28]: 12 µM | GI50 [29]: 1.28 µM | TGI [29]: 5.24 µM | GI50 [30]: 0.462 µM | TGI [30]: 4.58 µM | GI50 [31]: 0.582 µM | TGI [31]: 4.68 µM | GI50 [32]: 0.523 µM | TGI [32]: 12.8 µM | GI50 [33]: 0.427 µM | TGI [33]: 13 µM | GI50 [34]: 2.24 µM | TGI [34]: 49.7 µM | GI50 [35]: 2.46 µM | TGI [35]: 14.2 µM | GI50 [36]: 1.12 µM | TGI [36]: 11.1 µM | GI50 [37]: 0.833 µM | TGI [37]: 14 µM | GI50 [38]: 1.21 µM | TGI [38]: 11.2 µM | GI50 [39]: 1.45 µM | TGI [39]: 4 µM | GI50 [40]: 0.883 µM | TGI [40]: 17.2 µM | GI50 [41]: 2.49 µM | TGI [41]: 7.18 µM | GI50 [42]: 1.33 µM | TGI [42]: 10.5 µM | GI50 [43]: 0.789 µM | TGI [43]: 8.34 µM | GI50 [44]: 0.872 µM | TGI [44]: 13.1 µM | GI50 [45]: 1.19 µM | TGI [45]: 3.5 µM | GI50 [46]: 3.12 µM | TGI [46]: 11.6 µM | GI50 [47]: 1.59 µM | TGI [47]: 15.2 µM | GI50 [48]: 1.41 µM | TGI [48]: 24.6 µM | GI50 [49]: 0.615 µM | TGI [49]: 4.27 µM | GI50 [50]: 0.314 µM | TGI [50]: 2.33 µM | GI50 [51]: 0.892 µM | TGI [51]: 15.7 µM | GI50 [52]: 0.952 µM | TGI [52]: 11.9 µM | GI50 [53]: 4.65 µM | TGI [53]: 28.3 µM | GI50 [54]: 0.64 µM | TGI [54]: 12 µM | GI50 [55]: 2.24 µM | TGI [55]: 8.56 µM | GI50 [56]: 0.476 µM | TGI [56]: 3.71 µM | GI50 [57]: 0.587 µM | TGI [57]: 10.4 µM
